Molecular target: TAAR1 (Mus musculus (Mouse), UniProt Q923Y8)
Test: Radioligand binding assay on TAAR1 (membranes of stably transfected HEK293 cells)
Details: competition with [3H]-rac-2-(1,2,3,4-tetrahydro-1-naphthyl)-2-imidazoline, 4° C., 30 min
Method: For the construction of expression plasmids the coding sequences of human, rat and mouse TAAR 1 were amplified from genomic DNA essentially as described by Lindemann et al.. The Expand High Fidelity PCR System (Roche Diagnostics) was used with 1.5 mM Mg^2+ and purified PCR products were cloned into pCR2.1—TOPO cloning vector (Invitrogen) following the instructions of the manufacturer. PCR products were subcloned into the pIRESneo2 vector (BD Clontech, Palo Alto, Calif.), and expression vectors were sequence verified before introduction in cell lines.
HEK293 cells (ATCC # CRL-1573) were cultured essentially as described Lindemann et al. (2005). For the generation of stably transfected cell lines HEK293 cells were transfected with the pIRESneo2 expression plasmids containing the TAAR coding sequences (described above) with Lipofectamine 2000 (Invitrogen) according to the instructions of the manufacturer, and 24 hrs post transfection the culture medium was supplemented with 1 mg/ml G418 (Sigma, Buchs, Switzerland). After a culture period of about 10 d clones were isolated, expanded and tested for responsiveness to trace amines (all compounds purchased from Sigma) with the cAMP Biotrak Enzyme immunoassay (EIA) System (Amersham) following the non-acetylation EIA procedure provided by the manufacturer. […] Membrane Preparation and Radioligand Binding
Cells at confluence were rinsed with ice-cold phosphate buffered saline without Ca^2+ and Mg^2+ containing 10 mM EDTA and pelleted by centrifugation at 1000 rpm for 5 min at 4° C. The pellet was then washed twice with ice-cold phosphate buffered saline and cell pellet was frozen immediately by immersion in liquid nitrogen and stored until use at −80° C. Cell pellet was then suspended in 20 ml HEPES-NaOH (20 mM), pH 7.4 containing 10 mM EDTA, and homogenized with a Polytron (PT 3000, Kinematica) at 10,000 rpm for 10 s. The homogenate was centrifuged at 48,000×g for 30 min at 4° C. and the pellet resuspended in 20 ml HEPES-NaOH (20 mM), pH 7.4 containing 0.1 mM EDTA (buffer A), and homogenized with a Polytron at 10,000 rpm for 10 s. The homogenate was then centrifuged at 48,000×g for 30 min at 4° C. and the pellet resuspended in 20 ml buffer A, and homogenized with a Polytron at 10,000 rpm for 10 s. Protein concentration was determined by the method of Pierce (Rockford, Ill.). The homogenate was then centrifuged at 48,000×g for 10 min at 4° C., resuspended in HEPES-NaOH (20 mM), pH 7.0 including MgCl2 (10 mM) and […] homogenized with a Polytron at 10,000 rpm for 10 s.
Binding assay was performed at 4° C. in a final volume of 1 ml, and with an incubation time of 30 min. The radioligand [^3H]-rac-2-(1,2,3,4-tetrahydro-1-naphthyl)-2-imidazoline was used at a concentration equal to the calculated Kd value of 60 nM to give a bound at around 0.1% of the total added radioligand concentration, and a specific binding which represented approximately 70-80% of the total binding. Non-specific binding was defined as the amount of [^3H]-rac-2-(1,2,3,4-tetrahydro-1-naphthyl)-2-imidazoline bound in the presence of the appropriate unlabelled ligand (10 μM). Competing ligands were tested in a wide range of concentrations […]. […] Each experiment was performed in duplicate. All incubations were terminated by rapid filtration through UniFilter-96 plates (Packard Instrument Company) and glass filter GF/C, pre-soaked for at least 2 h in polyethylenimine 0.3%, and using a Filtermate 96 Cell Harvester (Packard Instrument Company). The tubes and filters were then washed 3 times with 1 ml aliquots of cold buffer B. Filters were not dried and soaked in Ultima gold (45 μl/well, Packard Instrument Company) and bound radioactivity was counted by a TopCount Microplate Scintillation Counter (Packard Instrument Company).

TAAR1, sequence (Q923Y8 whole entry): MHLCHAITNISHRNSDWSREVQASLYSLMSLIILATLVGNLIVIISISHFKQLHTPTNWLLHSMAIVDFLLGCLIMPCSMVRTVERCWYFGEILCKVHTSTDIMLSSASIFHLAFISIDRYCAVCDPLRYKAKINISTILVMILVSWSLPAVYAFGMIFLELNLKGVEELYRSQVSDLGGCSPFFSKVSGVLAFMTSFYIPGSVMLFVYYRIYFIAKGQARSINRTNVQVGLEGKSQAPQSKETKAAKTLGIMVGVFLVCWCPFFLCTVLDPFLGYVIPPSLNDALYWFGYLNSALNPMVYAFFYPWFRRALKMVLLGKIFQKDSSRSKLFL

In order of falling Ki:
1. C[C@H](C[C@H]1COC(N)=N1)Oc1cccc(Cl)c1 [Example 84, (S)-4-[(R)-2-(3-Chloro-phenoxy)-propyl]-4,5-dihydro-oxazol-2-ylamine]  0.0076 µM
2. C[C@@H](C[C@H]1COC(N)=N1)Oc1ccc(F)cc1 [Example 64]  0.0076 µM
3. CC(CC[C@H]1COC(N)=N1)c1ccccc1 (stereo partly drawn) [Example 13, (4S)-4-(3-Phenyl-butyl)-4,5-dihydro-oxazol-2-ylamine]  0.0073 µM
4. CC[C@H](OC[C@H]1COC(N)=N1)c1ccccc1 [Example 156, (S)-4-((S)-1-Phenyl-propoxymethyl)-4,5-dihydro-oxazol-2-ylamine]  0.0073 µM
5. CC[C@@H](C[C@H]1COC(N)=N1)Oc1ccc2ncccc2c1 [Example 159, (S)-4-[(S)-2-(Quinolin-6-yloxy)-butyl]-4,5-dihydro-oxazol-2-ylamine]  0.0063 µM
6. C[C@H](C[C@H]1COC(N)=N1)Oc1ccc(Cl)c(Cl)c1 [Example 96, (S)-4-[(R)-2-(3,4-Dichloro-phenoxy)-propyl]-4,5-dihydro-oxazol-2-ylamine]  0.0062 µM
7. NC1=N[C@@H](CCC2(c3ccc(F)cc3F)CC2)CO1 [Example 89, (S)-4-{2-[1-(2,4-Difluoro-phenyl)-cyclopropyl]-ethyl}-4,5-dihydro-oxazol-2-ylamine]  0.0059 µM
8. NC1=N[C@@H](CCC2(c3ccc(Cl)cc3)CCC2)CO1 [Example 110, (S)-4-{2-[1-(4-Chloro-phenyl)-cyclobutyl]-ethyl}-4,5-dihydro-oxazol-2-ylamine]  0.0059 µM
9. CC[C@@H](C[C@H]1COC(N)=N1)Oc1cccc(O)c1 [Example 141, 3-[(S)-1-((8)-2-Amino-4,5-dihydro-oxazol-4-ylmethyl)-propoxy]-phenol]  0.0037 µM
10. CC(C)(CC[C@H]1COC(N)=N1)c1ccccc1 [Example 7, (S)-4-(3-Methyl-3-phenyl-butyl)-4,5-dihydro-oxazol-2-ylamine]  0.0032 µM
11. C[C@@H](CC[C@H]1COC(N)=N1)c1ccc(F)cc1 [Example 115, (S)-4-[(S)-3-(4-Fluoro-phenyl)-butyl]-4,5-dihydro-oxazol-2-ylamine]  0.0031 µM
12. C[C@@H](C[C@H]1COC(N)=N1)Oc1ccc(Cl)cc1 [Example 45, (S)-4-[(S)-2-(4-Chloro-phenoxy)-propyl]-4,5-dihydro-oxazol-2-ylamine]  0.0028 µM
13. CC[C@@H](C[C@H]1COC(N)=N1)Oc1ccc(F)c(F)c1 [Example 119, (S)-4-[(S)-2-(3,4-Difluoro-phenoxy)-butyl]-4,5-dihydro-oxazol-2-ylamine]  0.0017 µM
14. NC1=N[C@@H](CCOc2ccc(-c3ccc(F)cc3)cc2)CO1 [Example 48, (S)-4-[2-(4′-Fluoro-biphenyl-4-yloxy)-ethyl]-4,5-dihydro-oxazol-2-ylamine]  0.0016 µM
15. NC1=N[C@@H](CCCCc2ccccc2)CO1 [Example 172, (S)-4-(4-Phenyl-butyl)-4,5-dihydro-oxazol-2-ylamine]  0.0015 µM
16. CC[C@@H](C[C@H]1COC(N)=N1)Oc1ccc(Cl)cc1Cl [Example 158, (S)-4-[(S)-2-(2,4-Dichloro-phenoxy)-butyl]-4,5-dihydro-oxazol-2-ylamine]  0.0011 µM
17. CC[C@@H](C[C@H]1COC(N)=N1)Oc1ccc(Br)cc1 [Example 111, (S)-4-[(S)-2-(4-Bromo-phenoxy)-butyl]-4,5-dihydro-oxazol-2-ylamine]  0.001 µM
18. C[C@@H](C[C@H]1COC(N)=N1)Oc1ccc(Cl)c(Cl)c1 [Example 75, (S)-4-[(S)-2-(3,4-Dichloro-phenoxy)-propyl]-4,5-dihydro-oxazol-2-ylamine]  0.001 µM
19. NC1=N[C@@H](CCOc2cccc(OCc3ccccc3)c2)CO1 [Example 34, (S)-4-[2-(3-Benzyloxy-phenoxy)-ethyl]-4,5-dihydro-oxazol-2-ylamine]  0.0008 µM
20. NC1=N[C@@H](CCC2(c3ccc(F)c(Cl)c3)CC2)CO1 [Example 91, (S)-4-{2-[1-(3-Chloro-4-fluoro-phenyl)-cyclopropyl]-ethyl}-4,5-dihydro-oxazol-2-ylamine]  0.0006 µM
